Data from US12435083B2, “Cyclopropyl-(hetero)aryl-substituted ethylsulphonyl-pyridine derivatives” (BOEHRINGER INGELHEIM VETMEDICA GMBH, priority 2021, dated 2025).
Read-outs that look alike come from different tables or passages of the source.

Assays:
Aedes aegypti L1 larvae = assay: Activity against larvae of Aedes aegypti (L1 larvae, 384-well, image-based mortality); settings: 48 h at 27° C., 384-well, read-out: EC50 (percentage of mortality, A. aegypti L1 larvae)
Protocol: Example 3: Screening Method to Test Activity of Compounds of Formula (I) Against Larvae of Aedes aegypti
Eight A. aegypti L1 larvae in a total volume of 64 μL water were added to 384-well microplates containing compounds formulated in 100% DMSO. The plates were incubated for 48 h at 27° C. Individual well images were acquired and analyzed using a pipeline to quantitatively assess the amount of larvae biomass accumulating at the bottom of the well. The efficacy of a compound at a given dose is expressed as “percentage of mortality” and determined by comparison to average biomass descriptors of positive and negative control wells containing 1.0 μM Fipronil or DMSO only, respectively. Dose response assay were conducted to determine an EC50 value.

[1] = system: adult Rhipicephalus sanguineus ticks; assay: Contact activity against adult Rhipicephalus sanguineus (coated vial, mortality at 48 h); settings: Rhipicephalus sanguineus; 48 hours post-treatment, coated vial; read-out: EC50 (percentage mortality, adult R. sanguineus, contact)
Protocol: Example 5: Screening Method to Test Contact Activity of Compounds of Formula (I) Against Adult Rhipicephalus sanguineus
Compounds of formula (I) formulated in 100% DMSO were diluted in a solution containing acetone and Triton X-100 (0.02%). The resulting formulation was used to coat the inner walls of glass scintillation vials and the filter paper covering the cap of the vial. Once dried, ten adult R. sanguineus ticks were added to the vials. The vials were incubated at 24° C., 95% relative humidity, and 12 hours of light/12 hours of dark until evaluation. Ticks were visually evaluated for mortality at 48 hours post-treatment. Compound efficacy at a given dose is expressed as percentage mortality. A dose response series was implemented to determine EC50 values.
(§1) The four structurally closest prior art compounds (A), (B), (C) and (D) specifically excluded from the scope of formula (I) were characterized vis-a-vis selected compounds of formula (I) with regard to their potency in in vitro screening assays against fleas (Ctenocehalides felis) and ticks (Rhipicephalus sanguineus).
(§2) However, as explained above, spectrum of action against this range of species (i.e. fleas and ticks) is a desirable property of ectoparasiticides for veterinary use. In the following table 1 comparative experimental data of the in vitro assays are shown regarding flea membrane feeding (ingestion, blood feeding) activity against Ctenocephalides felis and contact activity against Rhipicephalus sanguineus.

[2] = system: adult Ctenocephalides felis fleas; assay: Contact activity against adult Ctenocephalides felis (treated surface, motility by machine vision, 24 h); settings: treated surface, 24h, read-out: EC80 (% motility reduction, adult C. felis, contact)
Text: Example 7: Screening Method to Test Contact Activity of Compounds of Formula (I) Against Adult Ctenocephalides felis

Plutella xylostella = assay: Insecticidal test on Plutella xylostella (Chinese cabbage seedling dip); settings: 144 h, 500 ppm, seedling dip, 6 days after dip treatment, read-out: activity level (corrected mortality rate), Plutella xylostella
Protocol: Example 12: Insecticidal Test on Plutella xylostella
(§3) The compounds of formula (I) of the present invention or salts thereof were separately dispersed in water and diluted to 500 ppm. Ten adults of Plutella xylostella were released onto Chinese cabbage seedlings and allowed to lay eggs thereon. 2 days after the release of the adults, the seedling was dipped in the dispersion for about 30 seconds. After air dried, the seedling was kept in a room at 25° C. 6 days after the dip treatment, the numbers of the dead and alive insects were counted. The corrected mortality rate was calculated according to the following formula and the insecticidal activity was evaluated according to the following criteria. Corrected mortality rate (%)=100×(Survival rate in an untreated plot−Survival rate in a treated plot)/Survival rate in an untreated plot • A: the corrected mortality rate is 100% • B: the corrected mortality rate is 90 to 99% • C: the corrected mortality rate is 80 to 89% • D: the corrected mortality rate is 50 to 79%

[3] = system: Laodelphax striatellus 3rd-instar nymphs; assay: Insecticidal test on Laodelphax striatellus (rice seedling dip); settings: 192 h, 500 ppm, seedling dip, 8 days after inoculation, read-out: activity level (corrected mortality rate), Laodelphax striatellus
Protocol: Example 13: Insecticidal Test on Laodelphax striatellus
as §3, with “Rice plant seedlings” for “Ten adults of Plutella xylostella”, “were” for “were released onto Chinese cabbage seedlings and allowed to lay eggs thereon. 2 days after the release of the adults, the seedling was”, “seedlings were put into a separate glass test tube and inoculated with ten 3rd-instar nymphs of Laodelphax striatellus and then the glass test tube” for “seedling”, “8” for “6”, “inoculation,” for “dip treatment,”

Myzus persicae = assay: Insecticidal test on Myzus persicae (foliar application on potted Chinese cabbage); settings: 144 h, read-out: control efficacy level (control rate), Myzus persicae
Text: Example 14: Insecticidal Test on Myzus persicae
The compounds of formula (I) of the present invention or salts thereof were separately dispersed in water and diluted to 500 ppm. Chinese cabbage plants were planted in plastic pots (diameter: 8 cm, height: 8 cm). Aphids (Myzus persicae) were propagated on the plants and then the number of surviving aphids was counted. The dispersion was applied to the foliage of the potted plants. After the plants were air dried, these were kept in a greenhouse. 6 days after the application, the number of the alive insects was counted on the plants. The control rate was calculated according to the following formula and the control efficacy was evaluated according to the following criteria. Control rate (%)=100−{(T×Ca)/(Ta×C)}×100 • Ta: the number of alive insects before the foliar application in a treated plot • T: the number of alive insects after the foliar application in a treated plot • Ca: the number of alive insects before the foliar application in an untreated plot • C: the number of alive insects after the foliar application in an untreated plot • A: the control rate is 100% • B: the control rate is 90 to 99% • C: the control rate is 80 to 89% • D: the control rate is 50 to 79%

[4] = system: adult Ctenocephalides felis fleas; assay: Ingestion activity (flea membrane feeding, blood feeding) against adult Ctenocephalides felis; settings: Ctenocephalides felis; bovine blood, 24h post treatment; read-out: EC80 (% motility reduction, adult C. felis, ingestion via membrane feeding)
Text: Example 6: Screening Method to Test Ingestion Activity of Compounds of Formula (I) Against Adult Ctenocephalides felis
as §1
It is important to note that compounds that show better activity versus ticks are more desirable in the animal health field, as ticks are more difficult to control than fleas. Noteworthy, in particular with regard to fleas the illustrated comparative data are based on a flea membrane feeding (ingestion, blood feeding) assay. Data from this assay are more relevant for compounds intended to be delivered systemically to an animal via oral or injectable routes. Membrane feeding assays differ to primary screening laboratory contact assays in that the latter only measure the effect of the direct contact of selected compounds on the parasite, such as the flea or the tick. The information derived from laboratory contact assays is strictly limited to the ability of the compound to be absorbed through the parasite surface and to reach its molecular target, and no information can be gleaned from these contact assays as to whether the compound would also be active when presented orally to the ectoparasite itself in a blood meal, such as with the membrane feeding assay, and certainly not when administered orally to an animal host (e.g. “in vivo”) with subsequent exposure to the ectoparasite.
as §2

[5] = system: Spodoptera litura 2nd-instar larvae; assay: Insecticidal test on Spodoptera litura (cabbage leaf dip); settings: foliar, 192 h, 8 days after inoculation, read-out: activity level (corrected mortality rate), Spodoptera litura
Protocol: Example 11: Insecticidal Test on Spodoptera litura
as §3, with “Cabbage leaves” for “Ten adults of Plutella xylostella”, “were” for “were released onto Chinese cabbage seedlings and allowed to lay eggs thereon. 2 days after the release of the adults, the seedling was”, “leaves were placed in a plastic Petri dish with a diameter of 9 cm and inoculated with ten 2nd-instar larvae of Spodoptera litura, after which the dish” for “seedling”, “closed and then allowed to stand” for “kept”, “8” for “6”, “inoculation,” for “dip treatment,”

[6] = 500 ppm, foliar application, 6 days after application

| Compound | EC50 (Aedes aegypti L1 larvae) [µM] | EC50 [1] [µM] | EC80 [2] [µM] | mortality at 500 ppm (Plutella xylostella) [%] | mortality at 500 ppm [3] [%] | pest or weed control at 500 ppm (Myzus persicae; [6]) [%] | EC80 [4] [µM] | mortality at 500 ppm [5] [%] | pest or weed control at 500 ppm (Myzus persicae; foliar) [%] |
| --- | --- | --- | --- | --- | --- | --- | --- | --- | --- |
| CCS(=O)(=O)c1cc(-c2ccc(C3CC3)cc2)cnc1-n1nc2cc(SC(F)(F)F)ncc2c1Cl [Compound 27, 2-[3-chloro-6-[(trifluoromethyl)sulfanyl]pyrazolo[4,3-c]pyridin-2-yl]-5-(4-cyclopropylphenyl)-3-(ethanesulfonyl)pyridine] | < 0.04 | < 10 | 1 to 10 | – | – | – | – | – | – |
| CCS(=O)(=O)c1cc(-c2ccc(C3CC3)cc2)cnc1-n1cc2cnc(S(=O)(=O)C(F)(F)F)cc2n1 [Compound 30, 5-(4-cyclopropylphenyl)-3-(ethanesulfonyl)-2-[6-trifluoromethanesulfonylpyrazolo[4,3-c]pyridin-2-yl]pyridine] | < 0.04 | – | 1 to 10 | – | – | – | – | – | – |
| CCS(=O)(=O)c1cc(-c2ccc(C3CC3)cc2)cnc1-c1ccc(OCC(F)(F)C(F)(F)F)cn1 [Compound 52, 5-(4-cyclopropylphenyl)-3-(ethanesulfonyl)-5′-(2,2,3,3,3-pentafluoropropoxy)-2,2′-bipyridine] | < 0.04 | < 10 | – | 100 | 100 | 100 | – | – | – |
| CCS(=O)(=O)c1cc(-c2ccnc(C3CC3)c2)cnc1-c1nc2cc(C(F)(F)C(F)(F)F)nnc2n1C [Compound 60, 2′-cyclopropyl-5-(ethanesulfonyl)-6-[7-methyl-3-(1,1,2,2,2-pentafluoroethyl)imidazo[4,5-c]pyridazin-6-yl]-3,4′-bipyridine] | < 0.04 | 10 to 100 | 1 to 10 | 100 | 100 | – | – | – | – |
| CCS(=O)(=O)c1cc(-c2ccc(C3CC3)cc2)cnc1-c1nc2cc(S(=O)(=O)C(F)(F)F)cnc2n1C [Compound 82, 5-(4-cyclopropylphenyl)-3-(ethanesulfonyl)-2-[3-methyl-6-trifluoromethanesulfonylimidazo[4,5-b]pyridin-2-yl]pyridine] | < 0.04 | – | 1 to 10 | 100 | 100 | – | – | – | – |
| CCS(=O)(=O)c1cc(-c2ccc(C3CC3)cc2)cnc1-c1nc2cc(SC(F)(F)F)cnc2n1C [Compound 83, 5-(4-cyclopropylphenyl)-3-(ethanesulfonyl)-2-[3-methyl-6-[(trifluoromethyl)sulfanyl]imidazo[4,5-b]pyridin-2-yl]pyridine] | < 0.04 | – | 1 to 10 | 100 | 100 | 100 | – | – | – |
| CCS(=O)(=O)c1cc(-c2ccc(C3CC3)cc2)cnc1-c1cc2n(CC(F)(F)F)cc(C(F)(F)F)cc-2n1 [Compound 107, 5-(4-cyclopropylphenyl)-3-(ethanesulfonyl)-2-[4-(2,2,2-trifluoroethyl)-6-(trifluoromethyl)pyrrolo[3,2-b]pyridin-2-yl]pyridine] | – | – | 1 to 10 | – | – | – | 1 to 10 | 100 | – |
| CCS(=O)(=O)c1cc(-c2ccc(C3CC3)nc2)cnc1-c1ccc(OCC(F)(F)C(F)(F)F)cn1 [Compound 123, 6′-cyclopropyl-5-(ethanesulfonyl)-6-[5-(2,2,3,3,3-pentafluoropropoxy)pyridin-2-yl]-3,3′-bipyridine] | – | – | – | 100 | 100 | – | – | 100 | 100 |
| CCS(=O)(=O)c1cc(-c2cccc(C3(C(F)(F)F)CC3)n2)cnc1-c1cc2n(CC(F)F)cc(C(F)(F)F)cc-2n1 [Compound 171, 6′-[4-(2,2-difluoroethyl)-6-(trifluoromethyl)pyrrolo[3,2-b]pyridin-2-yl]-5′-(ethanesulfonyl)-6-[I-(trifluoromethyl)cyclopropyl]-2,3′-bipyridine] | – | – | 1 to 10 | 100 | – | – | 1 to 10 | 100 | – |
| CCS(=O)(=O)c1cc(-c2ccc(C3(C(F)(F)F)CC3)cc2)cnc1-c1nc2cc3c(cc2n1C)OC(F)(F)O3 [compound 129] | – | – | 1 to 10 | 100 | 100 | – | 1 to 10 | 100 | – |
| CCS(=O)(=O)c1cc(-c2nccc(C3CC3)n2)cnc1-c1nc2cc(C(F)(F)C(F)(F)F)nnc2n1C [compound 143] | – | – | < 1 | 100 | 100 | – | < 1 | 100 | – |
